Measurements as given in the METLIN SMRT retention time set (Domingo-Almenara et al. 2019).

Assay: gradient 5% acetonitrile 3 min, to 50% in 2 min, to 85% in 15 min, held 3 min, 100 µL/min
Conditions: column: Zorbax Extend-C18 2.1 x 50 mm; eluents: water / acetonitrile, 0.1% formic acid
Procedure, shortened: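 The mobile phases were water and acetonitrile, each with 0.1% formic acid, pumped at 100 μL/min through a Zorbax Extend-C18 column (2.1 × 50 mm, 1.8 μm). Pure standards were injected as mixtures of ~100 molecules and detected by a quadrupole time-of-flight mass spectrometer in positive and negative ionization mode. Retention time came from computationally picked adduct peaks, each inspected by hand.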

SMILES	RP-LC retention time [s]
CCn1ccc2cc(S(=O)(=O)N3CCCC(C(=O)NC4CCCCCC4)C3)ccc21 (centres undefined)	1080
Cc1nc(Nc2ccc(F)cn2)sc1C(=O)NCCC1=CCCCC1	963
CC(C)n1cnc2cc(CNC(=O)c3cccs3)ccc21	608
COc1ccccc1-c1nnc(-c2ccc(OC)c(S(=O)(=O)N3CCCC3)c2)o1	830
CC(C)CCNC(=O)c1ccc2ccnc(N3CCN(c4ccc(Cl)cc4)CC3)c2c1	992
O=C(C1=CN(c2cccc(Br)c2)c2ccccc2S1(=O)=O)N1CCCC1	819
CC(=O)N1CCCCCCNC(=O)[C@@H]2CCC[C@@H]21	624
NC(=NCc1ccc(Cl)cc1Cl)NC(=O)c1nc(Cl)c(N)nc1N	770
COC(=O)c1c(-c2cccc(F)c2)noc1NCc1ccc(OC)cc1OC	548
CCc1cccc(NC(=O)N2c3ccccc3CC2c2nc(CCOC)no2)c1 (centres undefined)	1060
Cc1nc(C)c(C(=O)N2CCC(Oc3ccc(-c4noc(-c5ccccc5)n4)cc3)C2)s1 (centres undefined)	1080
Cc1ccc(F)cc1NS(=O)(=O)c1ccc(-c2nnc(C3CCC3)o2)o1	931
O=c1ccc(-c2cccc(Cl)c2)nn1CCc1nc(-c2ccc3c(c2)OCO3)no1	999
COc1ccc(NC(=O)N2CCCC2c2nc(-c3ccccc3OC)no2)cc1OC (centres undefined)	941
Cc1noc(-c2ccc(=O)n(CC(=O)NC3CCc4ccccc43)c2)n1 (centres undefined)	669
CCc1ccc(S(=O)(=O)NCCOc2ccc(-c3ccco3)nn2)s1	804
CCOC(=O)Cc1ccc(NC(=O)N2CCC(n3c(C)nc4cccnc43)C2)cc1 (centres undefined)	598
Cn1nc(-c2nc(C3CC3)no2)c2c1CCN(C(=O)NCc1ccccc1)C2	788
CCCc1nc(-c2c(C)cc(C)nc2NC(=O)COc2ccccc2)no1	946
Cc1cccc(CNC(=O)c2nc3cccnc3n(CC(C)C)c2=O)c1	580
CCCCN1C(=O)C(NC(=O)CCc2ccccc2)(C(F)(F)F)C(C(=O)OC)=C1C (centres undefined)	1030
CCOC(=O)c1ccc(OC(=O)c2cn(C)c(=O)c3ccccc23)cc1	953

SMILES	RP-LC retention time [s]
CC1(c2nc(C3CC3)no2)CCCN(C(=O)c2n[nH]c3ccccc23)C1 (centres undefined)	781
CCc1nnc(-c2ccc3ccn(CC(=O)NCCc4ccccc4)c3c2)o1	836
CCn1nc(C)c(CCNC(=O)C2CCCN(c3nn4c(=O)c5c(nc4s3)CCCC5)C2)c1C (centres undefined)	634
CCOC(=O)N1CCN(C(=O)c2cn(C)nc2C)CC1	572
Cc1ccc2[nH]cc(CCN3CC(C(=O)N4CCN(c5ccccc5)CC4)CC3=O)c2c1 (centres undefined)	839
CCNC(=O)c1[nH]c2ccc(C)cc2c1N1CCCC1=O	690
CCOC(=O)N1CCN(C(=O)CSc2ccc(C)cc2)CC1	765
Cn1c(=O)c2nc(S(=O)(=O)CCC(=O)Nc3ccc(F)cc3F)n(C)c2n(C)c1=O	737
COc1ccc(OC)c(NC(=O)N2CCC(N3CCN(Cc4ccc(F)cc4)C(=O)C3=O)CC2)c1	773
CSc1ccc(-c2noc(Cc3nnc(-c4ccc(C)c(C)c4)o3)n2)cc1	1190
CCn1ncc(NC(=O)c2ccccc2F)c(N2CCOCC2)c1=O	842
Cc1ccn2cc(-c3ccc(NC(=O)CCC4CCCCC4)cc3)nc2n1	761
CS(=O)(=O)N1CCOc2ccc(CCC(=O)NCC3CCCO3)cc2C1 (centres undefined)	666
Cc1ccc(-c2csc(-n3nc(C)c(CC(=O)Nc4ccc(Br)cc4)c3C)n2)cc1	1350
CCc1ccccc1NC(=O)N1CCCC1c1nc(-c2ccc(F)cc2F)no1 (centres undefined)	987
COc1ccc(NC(=O)c2cnc3c(c2)c(=O)n(C)c(=O)n3-c2ccc(C)cc2)cc1	900
CCC1CCCCN1CCCNC(=O)C1=C(C)C(=O)OC12CCN(C(C)=O)CC2 (centres undefined)	565
N#CC1=C(N)Oc2c(ccc3cccnc23)C1c1ccccc1 (centres undefined)	768
C=CCN(C(=O)C1CCCN(c2ncnc3c2nc2n3CCCCC2)C1)c1ccccc1 (centres undefined)	864
Cc1ccccc1-c1noc(-c2cccn(CC(=O)NCC3CCCO3)c2=O)n1 (centres undefined)	729
Cc1ccccc1CNC(=O)CN1C(=O)CCCc2cc(S(=O)(=O)N3CCCC3)ccc21	916

Second part, the molecule after the results:

RP-LC retention time [s]	SMILES
753	O=C(Cc1nnc(-c2ccc3ncccc3c2)o1)N1CCN(c2ccccc2F)CC1
758	O=C(c1ccco1)N1CCN(C(=O)C2CN(S(=O)(=O)C3CC3)CC23CCCCC3)CC1 (centres undefined)
858	O=C(c1ccccc1Cl)N1CCN(C(=O)c2nnn3c2COC(c2ccccc2)C3)CC1 (centres undefined)
740	COCC(=O)N(C1CCOCC1)C1CCN(S(=O)(=O)c2ccccc2F)CC1
912	O=C(Oc1ccccc1)N1CCC(CNS(=O)(=O)/C=C/c2ccccc2)CC1
792	CCOC(=O)c1[nH]c(C)c(CCC(=O)N2CCC(C(=O)NC(C)c3ccccc3)CC2)c1C (centres undefined)
1020	Cc1c(Cc2ccccc2)[n+](=O)c2ccccc2n1[O-]
1190	O=c1c2cc(-c3ccc(Br)cc3)nn2cnn1Cc1nc(-c2ccccc2)no1
638	CSc1ccccc1NC(=O)c1cn2c(n1)CCCC2
716	CCn1cc(CC(=O)NCc2cccc(F)c2)c2cccnc21
1220	CC(C)c1ccc(NC(=O)Cn2cccc2-c2nc(-c3ccc4c(c3)OCO4)no2)cc1
698	COc1ccc(NC(=O)C2CCCN(c3cnc4nccnc4c3)C2)cc1 (centres undefined)
944	O=C(NCCCc1ccccc1)C1CCCN(C(=O)Cc2cccc3ccccc23)C1 (centres undefined)
1090	CCOC(=O)C(=O)Nc1c(C(=O)Nc2cccc(Cl)c2)oc2ccccc12
686	Cc1ccc(-c2cc3c(=O)n(Cc4noc(CN5CCCC5)n4)ccn3n2)c(C)c1
735	COc1ccc(C(C)NC(=O)c2c(C)sc3ccn(C)c(=O)c23)cc1 (centres undefined)
520	Cc1cc2c(N3CCN(CCO)CC3)ncnc2s1
1120	CC(C)c1csc(-c2csc(S(=O)(=O)Nc3ccc(F)c(F)c3)c2)n1
672	CCOC(=O)c1c(C)[nH]c(C(=O)N2CCCC(C(=O)N3CCOCC3)C2)c1C (centres undefined)
870	O=C(NC1CC1)c1ccc(OCC2CCN(C(=O)c3ccc(F)c(Cl)c3)CC2)cc1
680	O=C(NCc1ccccc1F)C1CCCN(c2cnc3nccnc3c2)C1 (centres undefined)
561	Cc1scc2nc(C(=O)NCc3ccc(F)cc3)nc(N3CCCC3)c12
775	COc1ccc2cc(C(=O)NCCC(=O)NCCc3c[nH]c4ccccc34)[nH]c2c1

RP-LC retention time [s]	SMILES
623	CN(CCOC(=O)c1cccs1)Cc1ccccc1
793	Cc1nc(C(=O)NCC(=O)O)c(O)c2ccc(Oc3ccccc3)cc12
877	Cc1cc(Nc2nc(N[C@@H](C)c3ccc(F)cc3)c(C#N)cc2F)n[nH]1
895	COc1cccc(-c2ccc3nc(N4CCC(C(=O)NC(C)C)CC4)sc3n2)c1
948	CCOc1ccc(C2c3[nH]c4ccccc4c3CCN2C(=O)c2ccncc2)cc1 (centres undefined)
1190	COc1ccc(N2CCN(c3cc(SCC(=O)Nc4cccc(Cl)c4F)ncn3)CC2)cc1
881	O=C(NCc1ccccc1Cl)C1c2ccccc2CCN1C(=O)C1CC1 (centres undefined)
708	Cc1cc(C)n(CCNC(=O)c2nc3ccccc3s2)n1
816	COCCN1C(=O)CCc2cc(NS(=O)(=O)c3ccc(C)cc3C)ccc21
945	O=C1C2N=NN(Cc3nc(-c4ccccc4)no3)C2C(=O)N1c1ccc(F)cc1 (centres undefined)
761	CCC(=O)N1CCc2ccccc2C1C(=O)NCc1ccc2c(c1)OCO2 (centres undefined)
924	CN(C(=O)Cn1ccn2nc(-c3ccc(F)cc3)c(CO)c2c1=O)c1ccccc1
764	O=C(Nc1ccc2c(c1)OCCO2)C1CC(=O)N(CCc2c[nH]c3ccc(F)cc23)C1 (centres undefined)
1070	CCC(CC)C(=O)Nc1cccc(C(=O)Nc2nc(-c3ccccc3)cs2)c1
718	COc1ccc(CCNC(=O)Nc2nnc(SC)s2)cc1
835	Cc1oc(-c2[nH]ncc2C(=O)N2CCCC2)cc1S(=O)(=O)Nc1ccc(C(C)C)cc1
948	O=C(C1CCC1)N1CCc2sc(S(=O)(=O)Nc3ccc(F)c(Cl)c3)cc2C1
857	Cc1ccc(CNC(=O)C2(C)CCCN(C(=O)Nc3ccc(C)c(F)c3)C2)cc1 (centres undefined)
1050	COC(=O)c1ccc(C2Nc3ccc(C)cc3[C@H]3OCC[C@@H]23)cc1 (some centres undefined)
854	CC(C)NC(=O)Nc1cccc(Cl)c1
720	Cc1nn2c(N3CCN(c4ccccn4)CC3)c3c(nc2c1-c1ccccc1)CCC3
587	COc1ccc(CN2C[C@@H]3C(=O)N(C)C(=O)[C@@H]3C2)c(OC)c1
737	COCC(=O)N(C1CCOCC1)C1CCN(S(=O)(=O)c2ccccc2C)CC1
